Patent publication US12528825B2, “Compounds and uses thereof” (Foghorn Therapeutics Inc., priority 2020, dated 2026)
Entries after “also recorded” stand apart in the source; their conditions may differ.

How the values were obtained:
[1] = test system: synovial sarcoma cell lines (SYO1, Yamato, HS-SY-II, and ASKA); experiment: Growth of synovial sarcoma cell lines (IncuCyte confluency, crystal violet, colony imaging); type: cell-based; conditions: 1 μM or indicated concentrations, FIGS. 4-6
Procedure: (§1) Cells were treated with DMSO or the BRD9 degrader, Compound 1, at indicated concentrations, and proliferation was monitored from day 7 to day 14 by measuring confluency over time using an IncuCyte live cell analysis system (FIG. 4). Growth medium and compounds were refreshed every 3-4 days.
(§2) Cells were seeded into 12-well plates and treated with DMSO, 1 μM BRD9 inhibitor, Compound 2 (also known as BI-7273, see Martin et al, J Med Chem. 59(10):4462-4475 (2016); see structure of compound 2 below), or 1 μM BRD9 degrader, Compound 1.
(§3) The number of cells was optimized for each cell line. Growth medium and compounds were refreshed every 3-5 days. SYO1, Yamato, A549, 293T and HS-SY-II cells were fixed and stained at day 11. ASKA cells were fixed and stained at day 23. Staining was done by incubation with crystal violet solution (0.5 g Crystal Violet, 27 ml 37% Formaldehyde, 100 mL 10×PBS, 10 mL Methanol, 863 dH20 to 1 L) for 30 min followed by 3× washes with water and drying the plates for at least 24 h at room temperature. Subsequently plates were scanned on an Odyssey CLx Imaging system (FIG. 5).
(§4) Cells were seeded into 96-well ultra-low cluster plate (Costar, #7007) in 200 μL complete media and treated at day 2 with DMSO, Staurosporin, or BRD9 degrader, Compound 1, at indicated doses (FIG. 2C). Media and compounds were changed every 5 d and cell colonies were imaged at day 14.

[2] = test system: non-synovial control cancer cell lines (293T, A549, G401); experiment: Growth of non-synovial control cancer cell lines (crystal violet, colony imaging); type: cell-based; conditions: 1 μM or indicated doses, FIGS. 4-6
Procedure: as §1, §2, §3, §4

[3] = test system: synovial sarcoma cell lines (SYO1, HS-SY-II, and ASKA); experiment: Crystal violet growth assay, synovial sarcoma cell lines, day 14; type: cell-based; conditions: for inhibition of growth of synovial sarcoma cell lines: SYO1, HS-SY-II, ASKA, treated daily, indicated concentrations, day 14, FIG. 7
Procedure: (§5) Procedure: Cells were seeded into 6-well or 12-well plates and were treated daily with a BRD9 degrader (Compound 1), a bromo-domain BRD9 binder (Compound 2), E3 ligase binder (lenalidomide), DMSO, or staurosporin (positive control for cell killing), at indicated concentrations. The number of cells was optimized for each cell line. Growth media was refreshed every 5 days. By day 14, medium was removed, cells were washed with PBS, and stained using 500 μL of 0.005% (w/v) crystal violet solution in 25% (v/v) methanol for at least 1 hour at room temperature. Subsequently plates were scanned on an Odyssey CLx Imaging system.

[4] = test system: non-synovial control cancer cell lines (RD, HCT116, and Calu6); experiment: Crystal violet growth assay, non-synovial control cancer cell lines, day 14; type: cell-based; conditions: treated daily, indicated concentrations, FIG. 8
Procedure: as §5

[5] = test system: SYO1 cells; experiment: Cell cycle analysis (Click-iT Plus EdU flow cytometry); type: cell-based, human; conditions: 200 nM or 1 μM, 8 or 13 days, compared to DMSO and lenalidomide
Procedure: (§6) Procedure: SYO1 cells were treated for 8 or 13 days with DMSO, a BRD9 degrader (Compound 1) at 200 nM or 1 μM, or an E3 ligase binder (lenalidomide) at 200 nM. Compounds were refreshed every 5 days. Cell cycle analysis was performed using the Click-iT™ Plus EdU Flow Cytometry Assay (Invitrogen). The apoptosis assay was performed using the Annexin V-FITC Apoptosis Detection Kit (Sigma A9210). Assays were performed according to the manufacturer's protocol.

[6] = test system: SYO1 cells; experiment: Apoptosis assay (Annexin V-FITC); type: cell-based, human; conditions: 200 nM or 1 μM, 8 days, compared to DMSO controls
Procedure: as §6

[7] = test system: SYO-1 human biphasic synovial sarcoma tumor cells; experiment: SYO-1 synovial sarcoma xenograft tumor growth in NOD SCID mice; type: in vivo; conditions: 1 mg/kg, i.p., daily, 3 weeks, SYO-1 xenograft
Procedure: (§7) Method: NOD SCID mice (Beijing Anikeeper Biotech, Beijing) were inoculated subcutaneously on the right flank with the single cell suspension of SYO-1 human biphasic synovial sarcoma tumor cells (5×106) in 100 μL Dulbecco's Modified Eagle Medium (DMEM) with 10% fetal bovine serum (FBS). The mice were randomized into either control group [10% dimethyl sulfoxide (DMSO), 40% polyethylene glycol (PEG400) and 50% water], or treatment group D1 when the mean tumor size reached about 117 mm^3. Mice were dosed daily through intraperitoneal (i.p.) route over the course of 3 weeks. All dose volumes were adjusted by body weights in terms of mg/kg.

[8] = Tolerability (% body weight change) in the SYO-1 xenograft study; type: in vivo; conditions: 1 mg/kg, i.p., daily, 3 weeks; NOD SCID mice
Procedure: as §7

[9] = target: T1, BRD9 (Homo sapiens, UniProt Q9H8M2); experiment: BRD9 western blot in synovial sarcoma tumors in vivo; parameters: species or system mice; conditions: 1 mg/kg, i.p., 4 weeks; tumors collected 8, 72 and 168 hours post last dose; effect up to 168 hours after dose
T1 construct: Tumors were lysed with 1× RIPA lysis buffer; from tissue; host or cells: synovial sarcoma tumours collected from treated mice
T1 sequence (Q9H8M2 1-597): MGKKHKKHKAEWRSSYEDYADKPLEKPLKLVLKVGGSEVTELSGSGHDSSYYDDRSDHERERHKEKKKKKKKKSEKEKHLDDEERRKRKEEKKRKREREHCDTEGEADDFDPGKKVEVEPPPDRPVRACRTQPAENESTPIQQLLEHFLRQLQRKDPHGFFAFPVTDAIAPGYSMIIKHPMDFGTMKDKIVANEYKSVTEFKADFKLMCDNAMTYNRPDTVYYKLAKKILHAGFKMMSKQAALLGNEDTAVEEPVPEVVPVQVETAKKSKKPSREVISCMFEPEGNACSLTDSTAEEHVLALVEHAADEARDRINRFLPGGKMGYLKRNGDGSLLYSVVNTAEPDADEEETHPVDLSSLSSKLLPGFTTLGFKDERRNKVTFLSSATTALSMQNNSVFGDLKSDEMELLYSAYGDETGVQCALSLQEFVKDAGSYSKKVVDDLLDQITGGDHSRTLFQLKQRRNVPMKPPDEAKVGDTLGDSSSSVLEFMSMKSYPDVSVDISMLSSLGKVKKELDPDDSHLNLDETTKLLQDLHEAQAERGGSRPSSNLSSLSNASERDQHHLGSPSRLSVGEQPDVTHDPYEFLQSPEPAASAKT
Procedure: Method: Mice were treated with D1, 1 mg/kg, i.p. for 4 weeks. Mice were then euthanized, and tumors were collected at 8 hours, 72 hours, and 168 hours post last dose. Tumors were lysed with 1× RIPA lysis buffer (Boston BioProducts, BP-115D) with protease and phosphatase protein inhibitor (Roche Applied Science #04906837001 & 05892791001). Equal amounts of lysate (30 μg) were loaded in 4-12% Bis-Tris Midi Protein Gels in 1×MOPS buffer; samples ran at 120 V for 120 minutes. Protein was transferred to membrane with TransBlot at 250 mA for 150 minutes, and then membranes were blocked with Odyssey blocking buffer for 1 hour at room temperature. Membranes were hybridized overnight in cold room with primary antibodies. Images acquired using Li-COR imaging system (Li-COR Biotechnology, Lincoln, Nebraska).

SMILES | inhibition of growth of synovial sarcoma cell lines [1] | inhibition of growth of non-synovial control cancer cell lines [2] | inhibition of growth of synovial sarcoma cell lines [3] | growth inhibition compared with the other test compounds ([3]; all synovial cell lines) | inhibition of growth of non-synovial control cancer cell lines [4] | numbers of cells in the S-phase of the cell cycle [5] | numbers of early- and late-apoptotic cells [6] | tumor growth [7] | tolerability based on % body weight change [8] | BRD9 level in tumor (western blot) [9]
COc1cc(-c2cn(C)c(=O)c3cnccc23)cc(OC)c1CN(C)CC(=O)NCCOCCOCCNc1cccc2c1C(=O)N(C1CCC(=O)NC1=O)C2=O (centres unmarked) [Compound 1] | inhibition of the growth of the cells | does not result in inhibition of the growth | inhibition of the growth of the cells | most significant growth inhibition | did not result in inhibition of the growth | reduced numbers of cells in the S-phase | increased numbers of early- and late-apoptotic cells | – | – | –
COc1cc(-c2cn(C)c(=O)c3cnccc23)cc(OC)c1CN(C)C [Compound 2] | inhibition of the growth of the cells | does not result in inhibition of the growth | inhibition of the growth of the cells | – | did not result in inhibition of the growth | – | – | – | – | –
COc1cc(-c2cn(C)c(=O)c3cc(C(=O)NC4CCN(C5CCN(c6ccc7c(c6)C(=O)N(C6CCC(=O)NC6=O)C7)CC5)CC4(F)F)sc23)cc(OC)c1CN(C)C (centres unmarked) [Compound D1, 7-[4-[(dimethylamino)methyl]-3,5-dimethoxyphenyl]-N-[1′-[2-(2,6-dioxopiperidin-3-yl)-3-oxo-1H-isoindol-5-yl]-3,3-difluoro-[1,4′-bipiperidin]-4-yl]-5-methyl-4-oxothieno[3,2-c]pyridine-2-carboxamide] | – | – | – | – | – | – | – | tumor growth inhibition | well tolerated | complete degradation; also recorded: BRD9 inhibition
